Test results as given in patent US12281149B2, “Modulators of G-protein coupled receptors” (priority 2021, dated 2025).
Like-named read-outs stand apart in the source and are kept apart here. *1 amine or outer side, *2 acyl side, *3 side chain or, on linkers, in order; H or OH if unused. Where a SMILES comes first, the peptide text is derived from it. Side-chain parts run from the residue outwards. [ ]: non-standard residue; d: D form. The star is where a group is joined. cPentCO(1-(4-ClPh)) = O=C(C1(c2ccc(Cl)cc2)CCCC1)*; C20 diacid = O=C(O)CCCCCCCCCCCCCCCCCCC(=O)*; αMePhe(2-F) = C[C@](N)(Cc1ccccc1F)C(=O)O; β2hAla(2S) = C[C@@H](CN[*:1])C(=O)[*:2]; γGlu = O=C(O)[C@H](CCC(=O)[*:2])N[*:1]; X48 = CC(C)[C@H](C(=O)*)c1ccc(Cl)cc1; X62 = O=C(C1(c2cccc(Cl)c2)CCCC1)*; X18 = O=C(C1(c2cccc(F)c2)CCCC1)*; X46 = O=C(C1(c2ccccc2)CCOCC1)*; AEEA = NCCOCCOCC(=O)O; Aib = CC(C)(N)C(=O)O; βAla = NCCC(=O)O

Assays:
Format in all cases: cell-based
GLP-1 receptor [1] = target: T1, GLP-1 receptor (Homo sapiens, UniProt P43220); experiment: HitHunter cAMP assay, GLP-1 receptor; settings: for Emax: read-out: Emax GLP-1R
T1 sequence (P43220 24-463): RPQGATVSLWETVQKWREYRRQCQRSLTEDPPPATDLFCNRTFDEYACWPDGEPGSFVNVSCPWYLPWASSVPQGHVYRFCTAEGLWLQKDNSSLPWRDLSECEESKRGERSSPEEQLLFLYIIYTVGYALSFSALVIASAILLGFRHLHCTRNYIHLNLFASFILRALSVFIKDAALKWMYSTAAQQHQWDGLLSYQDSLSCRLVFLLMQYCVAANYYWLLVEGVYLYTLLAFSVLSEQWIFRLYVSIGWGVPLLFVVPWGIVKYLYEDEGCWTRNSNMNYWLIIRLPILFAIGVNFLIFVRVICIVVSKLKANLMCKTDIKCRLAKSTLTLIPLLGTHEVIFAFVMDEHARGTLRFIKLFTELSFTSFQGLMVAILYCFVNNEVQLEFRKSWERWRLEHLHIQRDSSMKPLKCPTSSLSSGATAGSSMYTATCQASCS

GIP receptor [2] = target: T2, GIP receptor (Homo sapiens, UniProt P48546); experiment: HitHunter cAMP assay, GIP receptor; settings: for Emax: read-out: Emax GIP-1R
T2 sequence (P48546 22-466): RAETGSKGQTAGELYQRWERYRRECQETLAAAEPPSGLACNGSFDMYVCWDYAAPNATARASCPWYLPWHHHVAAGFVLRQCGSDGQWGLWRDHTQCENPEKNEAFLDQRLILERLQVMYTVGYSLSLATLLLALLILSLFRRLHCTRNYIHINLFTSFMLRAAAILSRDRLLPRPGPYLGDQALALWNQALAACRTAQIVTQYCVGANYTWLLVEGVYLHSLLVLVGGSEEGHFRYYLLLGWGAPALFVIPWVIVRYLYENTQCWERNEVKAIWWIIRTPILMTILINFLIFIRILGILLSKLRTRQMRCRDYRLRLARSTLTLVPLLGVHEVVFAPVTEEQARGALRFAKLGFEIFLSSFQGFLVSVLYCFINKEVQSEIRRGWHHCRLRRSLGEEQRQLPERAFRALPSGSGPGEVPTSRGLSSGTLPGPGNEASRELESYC

GIP receptor [3] = target: T2, GIP receptor; experiment: PathHunter β-arrestin assay, GIP receptor; parameters: host or cells: PathHunter CHO-K1 GIPR β-Arrestin Cell Line
GLP-1 receptor [4] = target: T1, GLP-1 receptor; experiment: PathHunter β-arrestin assay, GLP-1 receptor; parameters: host or cells: PathHunter CHO-K1 GLP1R β-Arrestin Cell Line
Description: β-arrestin-2 recruitment for GLP-1 receptor or GIP receptor was measured using the DiscoverX PathHunter Detection Kit and PathHunter® CHO-K1 GLPIR β-Arrestin Cell Line or PathHunter® CHO-K1 GIPR β-Arrestin Cell Line, respectively). Briefly, cells were grown in Ham's F12 Nutrient Mix with 10% FBS and lifted with Cell dissociation buffer, Enzyme free, PBS based (ThermoFisher). Harvested cells were pelleted and resuspended in Assay Complete Cell Plating Reagent 2 and 5000 cells per well were plated in tissue culture treated 384-well small volume white assay plates. Plates were then incubated at 37° C. and 5% CO2 overnight. The media was then replaced with fresh Assay Complete Cell Plating Reagent 2. Cells were then treated with 10 nl compound in DMSO using an ECHO 550 acoustic dispenser (Labcyte) in a 20-point dose response format in duplicate for 90 min at 37° C. The assay was then completed according to the manufacturer's instructions. Luminescence was measured using a Perkin Elmer Envision plate reader. Raw data was normalized to the maximum signal from GLP-1 or GIP (high) and DMSO (low). Dose response curves were analyzed using GraphPad Prism 9.0.

[5] = CHO cells stably expressing human GLP-1 receptor, cAMP accumulation, 30 min, read-out: EC50 GLP-1R
[6] = CHO cells, cAMP, normalized to maximum signal from GLP-1 (high) and DMSO (low)
[7] = CHO cells stably expressing GIP receptor, cAMP accumulation, 30 min, read-out: EC50 GIP-1R
[8] = CHO cells, cAMP, normalized to maximum signal from GIP (high) and DMSO (low)
[9] = β-arrestin-2 recruitment, PathHunter CHO-K1 GIPR β-Arrestin Cell Line, 90 min at 37° C., normalized to GIP, read-out: GIPR β Arrestin EC50
[10] = β-arrestin-2 recruitment, PathHunter CHO-K1 GLP1R β-Arrestin Cell Line, 90 min at 37° C., normalized to GLP-1, read-out: GLP-1R β Arrestin EC50

SMILES	EC50 (GLP-1 receptor [1]) [nM]	Emax (GLP-1 receptor [1]; CHO) [%]	EC50 (GIP receptor [2]) [nM]	Emax (GIP receptor [2]; CHO) [%]	EC50 (GIP receptor [3]) [nM]	EC50 (GLP-1 receptor [4]) [nM]	EC50 (GLP-1 receptor [1]; [5]) [nM]	Emax (GLP-1 receptor [1]; [6]) [%]	EC50 (GIP receptor [2]; [7]) [nM]	Emax (GIP receptor [2]; [8]) [%]	EC50 (GIP receptor [3]; [9]) [nM]	EC50 (GLP-1 receptor [4]; [10]) [nM]
CC[C@H](C)[C@H](NC(=O)[C@H](CC(C)C)NC(=O)[C@H](Cc1c[nH]c2ccccc12)NC(=O)[C@H](CCC(N)=O)NC(=O)[C@@H](NC(=O)[C@H](Cc1ccccc1)NC(=O)[C@H](C)NC(=O)[C@H](CCCCNC(=O)COCCOCCNC(=O)COCCOCCNC(=O)CC[C@H](NC(=O)CCCCCCCCCCCCCCCCCCC(=O)O)C(=O)O)NC(=O)[C@H](CCC(N)=O)NC(=O)[C@H](C)NC(=O)[C@@H](NC(=O)[C@H](CCCCN)NC(=O)[C@H](CC(=O)O)NC(=O)[C@H](CC(C)C)NC(=O)C(C)(C)NC(=O)[C@@H](NC(=O)[C@H](CO)NC(=O)[C@H](Cc1ccc(O)cc1)NC(=O)[C@H](CC(=O)O)NC(=O)[C@H](CO)NC(=O)[C@@H](NC(=O)[C@H](Cc1ccccc1)NC(=O)[C@@H](NC(=O)CNC(=O)[C@H](CCC(=O)O)NC(=O)CCNC(=O)[C@H](c1ccc(Cl)cc1)C(C)C)[C@@H](C)O)[C@@H](C)O)[C@@H](C)CC)[C@@H](C)CC)C(C)C)C(=O)N[C@@H](C)C(=O)NCC(=O)NCC(=O)N1CCC[C@H]1C(=O)N[C@@H](CO)C(=O)N[C@@H](CO)C(=O)NCC(=O)N[C@@H](C)C(=O)N1CCC[C@H]1C(=O)N1CCC[C@H]1C(=O)N1CCC[C@H]1C(=O)N[C@@H](CO)C(N)=O [Compound 177] ({X48-βAla}-EGTFTSDYSI[Aib]LDKIAQK([AEEA-AEEA-γGlu-C20 diacid])AFVQWLIAGGPSSGAPPPS-NH2)	1 to 10	95	10 to 100	94	> 1000	> 1000	–	–	–	–	–	–
CC[C@H](C)[C@H](NC(=O)[C@H](CC(C)C)NC(=O)[C@H](Cc1c[nH]c2ccccc12)NC(=O)[C@H](CCC(N)=O)NC(=O)[C@@H](NC(=O)[C@H](Cc1ccccc1)NC(=O)[C@H](C)NC(=O)[C@H](CCCCNC(=O)COCCOCCNC(=O)COCCOCCNC(=O)CC[C@H](NC(=O)CCCCCCCCCCCCCCCCCCC(=O)O)C(=O)O)NC(=O)[C@H](CCC(N)=O)NC(=O)[C@H](C)NC(=O)[C@@H](NC(=O)[C@H](CCCCN)NC(=O)[C@H](CC(=O)O)NC(=O)[C@H](CC(C)C)NC(=O)C(C)(C)NC(=O)[C@@H](NC(=O)[C@H](CO)NC(=O)[C@H](Cc1ccc(O)cc1)NC(=O)[C@H](CC(=O)O)NC(=O)[C@H](CO)NC(=O)[C@@H](NC(=O)[C@](C)(Cc1ccccc1F)NC(=O)[C@@H](NC(=O)CNC(=O)[C@H](CCC(=O)O)NC(=O)CCNC(=O)C1(c2ccccc2)CCOCC1)[C@@H](C)O)[C@@H](C)O)[C@@H](C)CC)[C@@H](C)CC)C(C)C)C(=O)N[C@@H](C)C(=O)NCC(=O)NCC(=O)N1CCC[C@H]1C(=O)N[C@@H](CO)C(=O)N[C@@H](CO)C(=O)NCC(=O)N[C@@H](C)C(=O)N1CCC[C@H]1C(=O)N1CCC[C@H]1C(=O)N1CCC[C@H]1C(=O)N[C@@H](CO)C(N)=O [Compound 178] ({X46-βAla}-EGT[αMePhe(2-F)]TSDYSI[Aib]LDKIAQK([AEEA-AEEA-γGlu-C20 diacid])AFVQWLIAGGPSSGAPPPS-NH2)	–	–	–	–	–	–	0.1 to 1	98	0.1 to 1	105	< 1000	> 1000
CC[C@H](C)[C@H](NC(=O)[C@H](CC(C)C)NC(=O)[C@H](Cc1c[nH]c2ccccc12)NC(=O)[C@H](CCC(N)=O)NC(=O)[C@@H](NC(=O)[C@H](Cc1ccccc1)NC(=O)[C@H](C)NC(=O)[C@H](CCCCNC(=O)COCCOCCNC(=O)COCCOCCNC(=O)CC[C@H](NC(=O)CCCCCCCCCCCCCCCCCCC(=O)O)C(=O)O)NC(=O)[C@H](CCC(N)=O)NC(=O)[C@H](C)NC(=O)[C@@H](NC(=O)[C@H](CCCCN)NC(=O)[C@H](CC(=O)O)NC(=O)[C@H](CC(C)C)NC(=O)C(C)(C)NC(=O)[C@@H](NC(=O)[C@H](CO)NC(=O)[C@H](Cc1ccc(O)cc1)NC(=O)[C@H](CC(=O)O)NC(=O)[C@H](CO)NC(=O)[C@@H](NC(=O)[C@](C)(Cc1ccccc1F)NC(=O)[C@@H](NC(=O)CNC(=O)[C@H](CCC(=O)O)NC(=O)CCNC(=O)C1(c2cccc(Cl)c2)CCCC1)[C@@H](C)O)[C@@H](C)O)[C@@H](C)CC)[C@@H](C)CC)C(C)C)C(=O)N[C@@H](C)C(=O)NCC(=O)NCC(=O)N1CCC[C@H]1C(=O)N[C@@H](CO)C(=O)N[C@@H](CO)C(=O)NCC(=O)N[C@@H](C)C(=O)N1CCC[C@H]1C(=O)N1CCC[C@H]1C(=O)N1CCC[C@H]1C(=O)N[C@@H](CO)C(N)=O [Compound 179] ({X62-βAla}-EGT[αMePhe(2-F)]TSDYSI[Aib]LDKIAQK([AEEA-AEEA-γGlu-C20 diacid])AFVQWLIAGGPSSGAPPPS-NH2)	–	–	–	–	–	–	0.1 to 1	100	0.1 to 1	106	< 1000	> 1000
CC[C@H](C)[C@H](NC(=O)[C@H](CC(C)C)NC(=O)[C@H](Cc1c[nH]c2ccccc12)NC(=O)[C@H](CCC(N)=O)NC(=O)[C@@H](NC(=O)[C@H](Cc1ccccc1)NC(=O)[C@H](C)NC(=O)[C@H](CCCCNC(=O)COCCOCCNC(=O)COCCOCCNC(=O)CC[C@H](NC(=O)CCCCCCCCCCCCCCCCCCC(=O)O)C(=O)O)NC(=O)[C@H](CCC(N)=O)NC(=O)[C@H](C)NC(=O)[C@@H](NC(=O)[C@H](CCCCN)NC(=O)[C@H](CC(=O)O)NC(=O)[C@H](CC(C)C)NC(=O)C(C)(C)NC(=O)[C@@H](NC(=O)[C@H](CO)NC(=O)[C@H](Cc1ccc(O)cc1)NC(=O)[C@H](CC(=O)O)NC(=O)[C@H](CO)NC(=O)[C@@H](NC(=O)[C@H](Cc1ccccc1)NC(=O)[C@@H](NC(=O)CNC(=O)[C@H](CCC(=O)O)NC(=O)[C@@H](C)CNC(=O)C1(c2cccc(F)c2)CCCC1)[C@@H](C)O)[C@@H](C)O)[C@@H](C)CC)[C@@H](C)CC)C(C)C)C(=O)N[C@@H](C)C(=O)NCC(=O)NCC(=O)N1CCC[C@H]1C(=O)N[C@@H](CO)C(=O)N[C@@H](CO)C(=O)NCC(=O)N[C@@H](C)C(=O)N1CCC[C@H]1C(=O)N1CCC[C@H]1C(=O)N1CCC[C@H]1C(=O)N[C@@H](CO)C(N)=O [Compound 180] (X18-[β2hAla(2S)]EGTFTSDYSI[Aib]LDKIAQK([AEEA-AEEA-γGlu-C20 diacid])AFVQWLIAGGPSSGAPPPS-NH2)	–	–	–	–	–	–	0.1 to 1	101	0.1 to 1	105	< 1000	> 1000
CC[C@H](C)[C@H](NC(=O)[C@H](CC(C)C)NC(=O)[C@H](Cc1c[nH]c2ccccc12)NC(=O)[C@H](CCC(N)=O)NC(=O)[C@@H](NC(=O)[C@H](Cc1ccccc1)NC(=O)[C@H](C)NC(=O)[C@H](CCCCNC(=O)COCCOCCNC(=O)COCCOCCNC(=O)CC[C@H](NC(=O)CCCCCCCCCCCCCCCCCCC(=O)O)C(=O)O)NC(=O)[C@H](CCC(N)=O)NC(=O)[C@H](C)NC(=O)[C@@H](NC(=O)[C@H](CCCCN)NC(=O)[C@H](CC(=O)O)NC(=O)[C@H](CC(C)C)NC(=O)C(C)(C)NC(=O)[C@@H](NC(=O)[C@H](CO)NC(=O)[C@H](Cc1ccc(O)cc1)NC(=O)[C@H](CC(=O)O)NC(=O)[C@H](CO)NC(=O)[C@@H](NC(=O)[C@H](Cc1ccccc1)NC(=O)[C@@H](NC(=O)CNC(=O)[C@H](CCC(=O)O)NC(=O)[C@@H](C)CNC(=O)C1(c2ccc(Cl)cc2)CCCC1)[C@@H](C)O)[C@@H](C)O)[C@@H](C)CC)[C@@H](C)CC)C(C)C)C(=O)N[C@@H](C)C(=O)NCC(=O)NCC(=O)N1CCC[C@H]1C(=O)N[C@@H](CO)C(=O)N[C@@H](CO)C(=O)NCC(=O)N[C@@H](C)C(=O)N1CCC[C@H]1C(=O)N1CCC[C@H]1C(=O)N1CCC[C@H]1C(=O)N[C@@H](CO)C(N)=O [Compound 181] ({cPentCO(1-(4-ClPh))}-[β2hAla(2S)]EGTFTSDYSI[Aib]LDKIAQK([AEEA-AEEA-γGlu-C20 diacid])AFVQWLIAGGPSSGAPPPS-NH2)	–	–	–	–	–	–	0.1 to 1	97	1 to 10	106	< 1000	> 1000
